# Data from US20040001818A1, “Methods of inhibiting angiogenesis using NADPH oxidase inhibitors” (priority 2000, published 2004).
# Starred links: 1 amine or outer side, 2 acyl side, 3 side chain; linkers in the order of their positions; H or OH if unused. Positions of bridges follow the written chain, without caps; N, C: chain ends. Non-standard residues stand in square brackets, D forms with d. Residues, ends and D or L forms follow the SMILES beside them. Chains are numbered I, II in the order given. Actinocin(9to1) = Cc1c2oc3c(C)ccc(C(=O)[*:1])c3nc-2c(C(=O)[*:2])c(N)c1=O; NMeV = CN[C@H](C(=O)O)C(C)C; Sar = CNCC(=O)O
# How the values were obtained:
# [1] = tested on: MnSOD mRNA; experiment: Northern blot of MnSOD mRNA in HCAECs; type: cell-based, human; settings: for VEGF-mediated induction of MnSOD: serum-starved HCAECs, VEGF 50 ng/ml, four hours, DPI 5, 25, 100 μM, apocynin 0.3, 2, 5 mM, allopurinol 0.1, 0.5 mM; for VEGF stimulation of MnSOD: HCAEC pre-incubated with 1 μM GF-109203X, 50 μM PD98059 or 20 μM SB 203580
# Protocol: Cell culture. Human coronary artery endothelial cells (HCAECs) (Clonetics Corporation, San Diego, Calif., USA) and human pulmonary artery endothelial cells (HPAECs) were grown in Endothelial Growth Medium-2-MV (EGM-2-MV) BulletKit (Clonetics Corporation, San Diego, Calif., USA). At 80-90% confluence, the cells were serum-starved in DMEM containing 0.5% FBS for 24 hours and subsequently treated with VEGF-supplemented medium for the times indicated. Human recombinant VEGF was purchased from PeproTech, Inc. (Rocky Hill, N.J., USA). […] In other studies, the serum-starved cells were pretreated with the MEK inhibitor PD98059 at a final concentration of 50 μM or a specific PKC inhibitor bisindolylmaleimide I (BIM; CalBiochem, San Diego, Calif., USA) at a final concentration of 5 μM for 30 minutes prior to addition of growth factors. An equal amount of DMSO was added to the control plates. Northern blot analyses. Ten micrograms total RNA was loaded on a 0.7% formaldehyde-containing agarose gel. The RNA was transferred to nylon membrane, covalently cross-linked with UV radiation, prehybridized for 6 hours, and hybridized for 18 hours at 42° C. with a [^32P]dCTP-labeled cDNA probe containing MnSOD or eNOS cDNA sequence. The membranes were subsequently stripped and probed with a radiolabeled 18S-ribosome probe. For actinomycin D experiments, HCAEC cells were pretreated with 10 μg/ml actinomycin D (Sigma Chemical Company, St. Louis, Mo., USA) for 30 minutes before addition of VEGF and were harvested for total RNA one hour later.
# To determine whether VEGF induced expression of MnSOD in primary endothelial cell cultures, HCAECs and HPAECs were serum starved for 24 hours, treated with 40 ng/ml VEGF for 0, 0.5, 1, 2, 4, 12 and 24 hours, and then harvested for total RNA. Northern blots were performed and probed for human MnSOD. […] The membranes were then stripped and reprobed for eNOS.
# To determine whether the response of MnSOD to VEGF was mediated by ROS, HCAECs were serum starved and then treated with VEGF in the absence or presence of inhibitors of NADPH oxidase (DPI, apocynin), xanthine oxidase (allopurinol) and nitric oxide synthase (L-NAME).
# [2] = tested on: human coronary artery endothelial cells (HCAECs); experiment: [3H]-thymidine incorporation in HCAECs; type: cell-based; settings: for thymidine incorporation: HCAECs grown in 10% FBS
# Protocol: To determine whether the effect of serum or VEGF on endothelial cell proliferation might also be dependent upon ambient levels of ROS, HCAECs were grown to confluence, split into 24 wells, serum starved for eight hours and then incubated in the absence or presence of VEGF for 16 or 24 hours. All wells received 1 μCi of [^3H]-thymidine at the time of treatment. After 16 or 24 hours, medium was removed, and the wells were washed 3 times with PBS. Radioactivity was extracted and thymidine incorporation measured using a scintillation counter.
# [3] = tested on: mouse embryonic fibroblasts; experiment: [3H]-thymidine incorporation in primary murine embryonic fibroblasts; type: cell-based; settings: 10% FBS, 16 hours
# Protocol: To determine whether the effect of NADPH oxidase inhibition was specific to endothelial cells, the effect of the various inhibitors on thymidine incorporation in primary murine embryonic fibroblasts was tested. The results are shown in FIG. 13, which is a histogram showing thymidine incorporation (y-axis) in mouse embryonic fibroblasts that have been grown in 0.5% FBS or 10% FBS in the absence (10% FBS) or presence of inhibitors (Apo=apocynin; allo=allopurinol; L-NAME) for 16 hours.
# [4] = tested on: ROS; experiment: ROS generation: DCF oxidation by flow cytometry in DCFDA-labeled HCAECs; type: cell-based, human; settings: relative to basal rate of control cells
# Protocol: Western blot analyses. Whole cell protein extracts were prepared from serum-starved HCAECs and HPAECs one hour following addition of growth factor-supplemented or mock-treated media. Cells were washed twice with cold phosphate-buffered saline, harvested with a cell scraper, and lysed in ice-cold lysis buffer containing 20 mM HEPES, pH 7.5, 150 mM NaCl, 1% NP-40, 0.1% SDS, 1 mM EDTA, 1 mM DTT, 0.5 mM phenylmethylsulfonyl fluoride (PMSF), and the protease inhibitor cocktail (Boehringer Mannheim, Mannheim, Germany) for one hour. The resulting lysates were centrifuged at 10,000× g for 20 minutes and the supernatants were saved as whole cell protein extracts. Forty micrograms of protein were separated by 10% SDS-PAGE and electrotransferred to nitrocellulose membranes. Membranes were blocked with 5% nonfat dry milk in Tris-buffered saline with 0.1% Tween 20 for one hour at room temperature. The blot was incubated with primary rabbit polyclonal anti-MnSOD IgG (1:1000 dilution) (Santa Cruz Biotechnology Inc., Santa Cruz, Calif., USA) overnight at 4° C., followed by secondary antibody goat-anti-rabbit horseradish peroxidase conjugate (1:1000 dilution) (Pierce, Rockford, Ill., USA). The blot was washed extensively between each incubation step. Peroxidase activity was visualized with an enhanced chemiluminescense substrate system (Amersham, Arlington Heights, Ill., USA). Membranes were stripped and probed for eNOS and β-actin. Flow cytometry. Endothelial cells were labeled with DCFDA and oxidation of DCF was measured by flow cytometry.
# To test whether VEGF increases ROS production in endothelial cells, HCAECs were labeled with […] DCFDA and oxidation of DCF was measured by flow cytometry. […] PMS is known to induce free oxygen radicals.
# [5] = tested on: human coronary artery endothelial cells (HCAECs); experiment: VEGF-induced chemotaxis of HCAECs, Boyden chamber assay; type: cell-based; settings: for inhibition of migration, dose dependence: VEGF 50 ng/ml, DPI 0.5, 1.0, 5.0, 10 μM, AEBSF 5, 50, 100, 250 μM
# Protocol: The capacity of NADPH oxidase inhibitors to block migration of human coronary artery endothelial cells was tested. In these studies, VEGF-induced chemotaxis was tested with the Boyden chamber assay. Human coronary artery endothelial cells were serum starved in 0.5% FBS overnight. 25,000 cells were seeded into the upper chamber in the absence or presence of DPI, while media containing 0.5% FBS and 40 ng/ml was placed into the lower chamber. The chamber was incubated for 4 hours at 37° C., at which time the polycarbonate filters were harvested and counted for migrating cells. The results are shown in FIG. 14, which is a histogram showing the migration in terms of cell count (y-axis) of human coronary artery endothelial cells in a Boyden chamber. The cells were serum starved in 0.5% FBS and treated with either VEGF, DPI or VEGF+DPI (x-axis).
# The effect of AEBSF on VEGF-induced migration was also studied. HCAECs were treated as above and treated by either VEGF, VEGF+100 μM allopurinol, or VEGF+250 μM AEBSF. The results are shown in FIG. 15, which is a histogram showing migration in terms of cell count (y-axis) when treated (x-axis). The NADPH oxidase inhibitor AEBSF abrograted the VEGF-mediated chemotaxis of HCAECs.
# These are histograms showing VEGF-mediated chemotaxis in control HCAECs (“C”), or HCAECs treated with 50 ng/ml VEGF in the absence or presence of increasing doses of DPI (0.5, 1.0, 5.0 or 10 μM; FIG. 16A) or AEBSF (5, 50, 100 or 250 μM; FIG. 16B).
# [6] = serum starved (0.5% FBS) and VEGF-treated HCAECs, 16 or 24 hours
smiles,measurement,setting,value
COc1cc(C(C)=O)ccc1O [apocynin],VEGF-mediated induction of MnSOD,[1],inhibited
same,serum-induced thymidine incorporation,"[2]; HCAECs, 5.0% FBS, apocynin 300 μM, 500 μM, 1 mM, 2 mM, 3 mM",dose-dependent inhibition
same,thymidine incorporation,[3],failed to reduce incorporation below baseline
"CN(C)CCCn1cc(C2=C(c3c[nH]c4ccccc34)C(=O)NC2=O)c2ccccc21 [BIM, bisindolylmaleimide I]",VEGF-mediated induction of MnSOD mRNA,"[1]; preincubation, BIM 0.1, 1, 5 μM, PD98059 5, 20, 100 μM",inhibited
O=C1c2ccccc2Cc2ccccc21 [anthrone],thymidine uptake,[2]; [6],profound inhibition
Oc1ncnc2[nH]ncc12 [allopurinol],thymidine incorporation,[2],no effect
same,DCF oxidation (ROS production),[4],no effect
"c1ccc2c(c1)[I+]c1ccccc1-2 [DPI, diphenyleneiodonium]",migration (cell count),"[5]; 25 μM DPI, VEGF in lower chamber, 4 hours",profound inhibition
same,"inhibition of migration, dose dependence",[5],dose-dependent
same,VEGF-mediated induction of MnSOD,[1],inhibited
same,DPI concentration inhibiting serum-induced thymidine incorporation,"[2]; HCAECs in 5.0% FBS, doses 1, 5, 25, 40, 80 μM",≤ 1 µM
same,thymidine uptake,[2]; [6],profound inhibition
same,DCF oxidation (ROS production),[4],significantly inhibited
"NCCc1ccc(S(=O)(=O)F)cc1 [AEBSF, 4-(2-aminoethyl)-benzenesulfonyl fluoride]","inhibition of migration, dose dependence",[5],dose-dependent
same,VEGF-mediated chemotaxis,[5]; VEGF + 250 μM AEBSF,abrograted
same,VEGF-mediated induction of MnSOD mRNA,"[1]; pretreatment with the inhibitor, concentration not given",inhibited
same,thymidine uptake,"[2]; HCAECs, 5% FBS, AEBSF 5, 50, 100, 500 μM",inhibited
"Cc1c2oc3c(C)ccc(C(=O)N[C@@H]4C(=O)N[C@H](C(C)C)C(=O)N5CCC[C@H]5C(=O)N(C)CC(=O)N(C)[C@@H](C(C)C)C(=O)O[C@@H]4C)c3nc-2c(C(=O)N[C@@H]2C(=O)N[C@H](C(C)C)C(=O)N3CCC[C@H]3C(=O)N(C)CC(=O)N(C)[C@@H](C(C)C)C(=O)O[C@@H]2C)c(N)c1=O [Actinomycin D, actinomycin D] (I: T[dV]P[Sar][NMeV] / II: T[dV]P[Sar][NMeV]; ester I:1-I:C, II:1-II:C; linker I:N-II:N via Actinocin(9to1))",VEGF-mediated induction of MnSOD mRNA,"[1]; HCAEC, 10 μg/ml actinomycin D for 30 minutes before 60 minute incubation with VEGF",completely abolished
CCCCCCCCCCCCCC(=O)O[C@@H]1[C@@H](C)[C@@]2(O)[C@@H](C=C(CO)C[C@]3(O)C(=O)C(C)=C[C@@H]23)[C@@H]2C(C)(C)[C@]12OC(C)=O [PMA],DCF oxidation (ROS production),[4],significantly increased
COC(=O)[C@@H](N)CCCNC(=N)N[N+](=O)[O-] [L-NAME],thymidine incorporation,[2],no effect
same,DCF oxidation (ROS production),[4],no effect
COS(=O)(=O)[O-].C[n+]1c2ccccc2nc2ccccc21 [PMS],DCF oxidation (ROS production),[4],increased ROS production
CN(C)CCCn1cc(C2=C(c3c[nH]c4ccccc34)C(=O)NC2=O)c2ccccc21 [GF-109203X],VEGF stimulation of MnSOD,[1],significantly reduced
COc1cccc(-c2cc(=O)c3ccccc3o2)c1N [PD98059],VEGF stimulation of MnSOD,[1],not
C[S+]([O-])c1ccc(-c2nc(-c3ccncc3)c(-c3ccc(F)cc3)[nH]2)cc1 (stereo not shown) [SB 203580],VEGF stimulation of MnSOD,[1],not
